Data as given in ChEMBL document CHEMBL1157539, “Thousands of chemical starting points for antimalarial lead identification” (Nature, 2010).

What follows are compounds tested on Plasmodium falciparum (assay: GSK_TCMDC: Inhibition of Plasmodium falciparum 3D7 in whole erythrocytes, using parasite LDH activity as an index of growth.). Conditions: not given.
Assay type: functional, organism-based

SMILES	XC50
O=C(/C=C/c1ccc(Cl)cc1)NC1CCC(CN2CCC(c3c[nH]c4ccccc34)CC2)CC1 (configuration not stated)	800 nM

Same assay, conditions: Plasmodium falciparum, 3D7

SMILES	XC50
COc1cc2nc(N3CCC(CNC(=O)c4cccc5cc[nH]c45)CC3)nc(N)c2cc1OC	1580 nM
CC(O)C1CCCCN1C(=O)c1ccc(-c2ccc(-c3nc4cc(F)ccc4[nH]3)cc2)cc1 (configuration not stated)	435 nM
COc1ccccc1C1CCN(C2CCC(NC(=O)c3cc(-c4ccc(Cl)cc4)cs3)CC2)CC1 (configuration not stated)	383 nM
CC1CC(C)CN(S(=O)(=O)c2cc(C(=O)Nc3cccc([N+](=O)[O-])c3)ccc2Br)C1 (configuration not stated)	898 nM
COc1cccc(OC)c1CN1CCC(N(C)CCCCCCCCCN2CCC(OC(=O)Nc3ccccc3-c3ccccc3)CC2)CC1	319 nM
CC(=O)Nc1ccc2[nH]cc(C3CCN(CC4CCC(NC(=O)/C=C/c5ccccc5Cl)CC4)CC3)c2n1 (configuration not stated)	364 nM
COC(=O)c1cccc(CNCc2cccc(-c3cccc(-c4nc5cccc(C)c5[nH]4)c3)c2)c1	186 nM
COc1ccccc1CCN1CCC(CN(C)Cc2ccc(O)c(Cl)c2)CC1	335 nM
CS(=O)(=O)c1ccccc1CNC(=O)c1ccc(-c2cccc(-c3nc4cc(C(F)(F)F)ccc4[nH]3)c2)cc1	866 nM
C=CCc1cc(Cc2cnc(N)nc2N)cc(CCC)c1OC	1360 nM
O=C(NCCCNc1ccnc2cc(Cl)ccc12)c1ccccc1F	315 nM
Nc1cc(C(F)(F)F)ccc1Cl	736 nM
N#Cc1ccc(N/C(=N\c2ccc(-c3ccccc3)cc2)NC2CCCc3ccccc32)c(O)c1 (configuration not stated)	776 nM
CCOC(=O)C1=C(C)N=c2sc(=Cc3cc(Cl)ccc3O)c(=O)n2C1c1ccc2c(c1)OCO2 (configuration not stated)	712 nM
CC(=O)c1ccccc1C(=O)N1CCOc2ccc(C(O)C(c3ccccc3)c3ccccc3)cc2C1 (configuration not stated)	905 nM
O=c1cc(NCCCNC2CCc3ccc(Cl)cc32)[nH]c2ccccc12 (configuration not stated)	862 nM
CCNc1cc(C(=O)N[C@@H](Cc2ccccc2)[C@H](O)CNC2C3CC4CC(C3)CC2C4)cc(N2CCCCS2(=O)=O)c1 (some centres not stated)	668 nM
Cc1ccc(NC(=O)NCCCCCN2CCC(c3c[nH]c4ccccc34)CC2)cc1I	815 nM
CCCCc1cc(Cc2cnc(N)nc2N)cc(OC)c1OC	1040 nM
NCC(=O)Nc1cccc(Nc2nccc(-c3c(-c4cccc(NC(=O)c5ccccc5)c4)nn4ccccc34)n2)c1	432 nM
CC1CN(c2ccc(NC(=O)c3ccc(F)cc3)cc2)CCN1Cc1cccc(F)c1 (configuration not stated)	1350 nM
COc1ccc(NC(=O)[C@H](Cc2ccccc2)Nc2cc(C)nc(Nc3ccccc3)n2)cc1	1010 nM
NC(Cc1cccc(I)c1)C(=O)NCC1CCCO1 (configuration not stated)	895 nM
O=C(Cc1cc(=O)oc2cc(O)ccc12)N1CCC(CN2CCC(c3c[nH]c4ccccc34)CC2)CC1	870 nM

SMILES	XC50
CC(=O)Nc1nc(C(=O)Nc2ccc(-c3ccc(-c4nc5ccccc5[nH]4)cc3)cc2)cs1	150 nM
COc1cccc(-c2csc(C(=O)NCC3CCN(Cc4ccc(C(C)C)cc4)C3)c2)c1 (configuration not stated)	1390 nM
CCCNC(=O)c1ccc(N2CCC(c3ccccc3C)CC2)nc1	1520 nM
O=C(/C=C/c1ccc(Cl)c(Cl)c1)NCCCCCCN1CCN(C(=O)Nc2cc(F)cc(F)c2)CC1	1070 nM
COc1ccc(-c2cccc(NC(=O)c3cccc(C#N)c3)c2)cc1CN1CCN(C)CC1	926 nM
CC(C)CCCC(C)(C)NC[C@@H](O)[C@H](Cc1ccccc1)NC(=O)c1cc(NC(C)C)cc(N2CCCCS2(=O)=O)c1F	219 nM
O=C(NC1CCCCC1)N(CCCn1ccnc1)Cc1csc(-c2ccc(CNCc3ccccc3)cc2)n1	843 nM
O=C(Nc1ccc(-c2ccc(-c3nc4cc(C(F)(F)F)ccc4[nH]3)s2)cc1)c1ccoc1	854 nM
NC(=O)c1ccccc1OCC(=O)Nc1cccc(-c2ccc(-c3nc4ccccc4[nH]3)cc2)c1	786 nM
N#Cc1ccc2c(c1)CCN(CCC1CCC(NC(=O)/C=C/c3ccc4ccccc4c3)CC1)CC2 (configuration not stated)	724 nM
N#Cc1ccc(N(CCCO)Cc2ccccc2C(F)(F)F)cc1C(F)(F)F	978 nM
Cc1cc(O)nc(NC(=N)NOCc2ccccc2)n1	423 nM
CCOc1ccc(OCC)c(N2CCN(CCCCNC(=O)c3ccc(NC(=O)c4ccc(Cl)cc4)cc3)CC2)c1	587 nM
CCN(CC)CCN(CCN(CC)CC)c1ccc2c(c1)Sc1c(Cl)ccc(Cl)c1S2	876 nM
CNC(=O)C1Cc2c([nH]c3ccc(Cl)cc23)C2(CCN(CCc3ccccc3)CC2)N1 (configuration not stated)	893 nM
COc1ccc(-c2ccc(NC(=O)c3ccc(C#N)cc3)cc2)cc1CN1CCCC1	873 nM
O=C(/C=C/c1ccc(Cl)c(Cl)c1)N1CCC(CN2C3CCC2CC(c2c[nH]c4ccccc24)C3)CC1 (configuration not stated)	737 nM
Cc1cccc2nc(-c3cccc(-c4cccc(NC(=O)c5cn(C)c(=O)n5C)c4)c3)[nH]c12	505 nM
N#Cc1ccc(C(=O)Nc2ccc(-c3cccc(CN4CCCC4)c3)cc2)cc1	1000 nM
O=C(NCc1cccc2ccccc12)[C@@H]1CCCN1C(=O)c1ccc(O)c(-c2ccc(Cl)c(Cl)c2)c1	948 nM
FC(F)(F)c1cccc(N=C(S)NN=Cc2ccccn2)c1	346 nM
N#Cc1ccc2c(c1)CCN(CCC1CCC(NC(=O)/C=C/c3c[nH]c4ccc(F)cc34)CC1)CC2 (configuration not stated)	692 nM
Cc1cc(F)ccc1Nc1nc(N(C)c2ccccc2)c2cccc(OCCO)c2n1	795 nM
O=C(Nc1cccnc1)c1cc(-c2cc(Cl)ccc2O)n[nH]1	719 nM

SMILES	XC50
COc1ccccc1/C=C/C(=O)NC1CCC(CCN2CCc3ccc(-c4cc(C)no4)cc3CC2)CC1 (configuration not stated)	961 nM
CN(C)Cc1ccc(-c2ccc3ccnc(N)c3c2)cc1	380 nM
Cc1ccc(Nc2nc(C)cc(Nc3cccc(C#N)c3)n2)cc1	978 nM
CC(=O)c1ccc(NC(=O)NNC(=O)c2ccc(CCN3CCC(c4nc(COCC(F)(F)F)c(-c5ccc(F)cc5)o4)CC3)cc2)cc1	835 nM
CCOC(=O)c1nc(-c2ccc(Cl)cc2)[nH]c1NC(=S)NCCCN1CCOCC1	868 nM
CN(C)/C(=N/C(=N)Nc1ccc(Cl)cc1)NCCCCCCN/C(=N\C(=N)Nc1ccc(Cl)cc1)N(C)C	533 nM
CC(C)COc1ccc(Cl)cc1Cc1nc(-c2nc3ccc(CN4CCN(C)CC4)cc3[nH]2)co1	912 nM
COc1cccc(NC(=O)c2nc(N3CCN(c4ccncc4)CC3)ccc2Cl)c1	924 nM
S=C(NCCN1CCOCC1)Nc1ccccc1	1020 nM
Cc1cc(N2C(N)=NC(N)=NC2(C)C)ccc1Cl	20.9 nM
Cc1nc2ccc3nc(NC(=O)c4ccno4)sc3c2s1	656 nM
O=C(NC1CCN(c2ccnc3ccccc23)C1)c1cccc(C(F)(F)F)c1 (configuration not stated)	897 nM
COc1ccc(C(F)(F)F)cc1N1CCN(CCCCNC(=O)c2ccc(NC(=O)c3ccc(Cl)cc3)cc2)CC1	909 nM
O=C(NC(Nc1ccc([N+](=O)[O-])cc1)C(Cl)(Cl)Cl)c1cccc(Cl)c1 (configuration not stated)	863 nM
O=C(NCCN1CCN(S(=O)(=O)c2ccc(OC3CCNCC3)c(Br)c2)CC1)c1ccc(Cl)c(Cl)c1	891 nM
O=C(N[C@@H](CC1CCCCC1)C(=O)NCc1cccc2ccccc12)c1ccc(O)c(-c2ccc(Cl)c(Cl)c2)c1	216 nM
CN1CCCC(CN2CCN(Cc3cccc(-c4ccc(-c5nc6ccccc6[nH]5)s4)c3)CC2)C1 (configuration not stated)	149 nM
COc1cc2nc(N3CCC(CNC(=O)c4ccc(-c5ccc(-c6noc(C)n6)cc5)cc4)CC3)nc(N)c2cc1OC	139 nM
O=C(NCC1CCN(Cc2cccc(C(F)(F)F)c2)C1)c1cc(-c2cccc(Cl)c2)cs1 (configuration not stated)	803 nM
COc1ccc2[nH]c(C)cc(=NN=Cc3ccccc3)c2c1	1030 nM
CCC(C)NCc1c(O)ccc2c(CNC(C)CC)c(O)ccc12 (configuration not stated)	592 nM
CCCCCCC(C)(C)c1cc(O)c2c(c1)OC(C)(C)c1ccncc1-2	178 nM
Cc1c(CN2CCCCC2)cccc1OCCCNc1nc(NCCc2ccc(O)cc2)nc(N2CCNCC2)n1	223 nM
COc1ccc2ncc(F)c(NC(=O)C3CCC(NCc4cc5cc(F)cc(F)c5[nH]4)CC3)c2n1 (configuration not stated)	1090 nM

SMILES	XC50
O=C(CCC1CCCC1)N(Cc1ccc(-c2ccc(CNCCc3ccccn3)cc2)cc1)CC1CCCCN1 (configuration not stated)	1150 nM
Nc1nc(NCC2CCC(CNS(=O)(=O)c3cccc4ccccc34)CC2)nc2ccccc12 (configuration not stated)	804 nM
CC[C@H]1CN2CC[C@@H]1C[C@H]2[C@H](O)c1cc(-c2ccc(Cl)c(Cl)c2)nc2ccc(O)cc12	262 nM
N#Cc1ccc(N(CCOc2ccc(Cl)cc2)Cc2ccccc2C(F)(F)F)cc1C(F)(F)F	656 nM
O=C(/C=C/c1ccc(Cl)cc1)NC1CCC(CN2CCC(c3c[nH]c4ccccc34)CC2)CC1 (configuration not stated)	727 nM
O=C(CSc1nnc(O)n1Cc1ccccc1)Nc1ccccc1-c1ccccc1	953 nM
C/N=C(/Nc1c(Cl)cccc1Cl)N(C)C	820 nM
c1ccc2c(NCCCCCCCNc3ccnc4ccccc34)ccnc2c1	169 nM
CCOC(=O)c1ccc(-n2c(C)cc(C=C3SC(=Nc4ccccc4)N(C4CCCC4)C3=O)c2C)cc1	1170 nM
CCc1c(CCNC/C=C/C=C/CNCCc2ccc(OC)c(OC)c2CC)ccc(OC)c1OC	968 nM
CC(C)(C)c1ccc(Cn2nc(C(=O)N3CCN(C(=O)C4CCCO4)CC3)c3ccccc32)cc1 (configuration not stated)	1320 nM
O=C(Nc1cc(C(F)(F)F)cc(C(F)(F)F)c1)NC(CCCN1CCC2(CC1)OCc1ccccc12)c1ccc(Cl)c(Cl)c1 (configuration not stated)	820 nM
CC(C)(C)N1CCC(N(Cc2ccc(-c3ccc(C(F)(F)F)cc3)cc2)C(=O)Cn2c(CCc3cccc(F)c3F)nc(=O)c3cccnc32)CC1	757 nM
CNCCc1c(O)ccc2ccccc12	804 nM
O=C(CSc1nnc(-c2ccccc2Br)[nH]1)c1c[nH]c2ccccc12	982 nM
CN(C)c1ccc(C2c3[nH]cnc3CCN2C(=O)Nc2cccc([N+](=O)[O-])c2)cc1 (configuration not stated)	966 nM
COc1cc2ccccc2cc1OCCCN1CCN(CC(c2ccc(F)cc2)N2CCN(C(C)C)CC2)CC1 (configuration not stated)	749 nM
COc1ccc2nc(C)cc(Nc3ccc(Oc4ccc5ccccc5c4)c(Cl)c3)c2c1	691 nM
N#Cc1ccc2c(c1)CCN(CCC1CCC(NC(=O)c3cc4ccccc4[nH]3)CC1)CC2 (configuration not stated)	1010 nM
CC1CC(C)CN(CC(O)CNC(=O)Nc2ccc(Br)cc2)C1 (configuration not stated)	1050 nM
CCCCNc1cc(C)nc(NCc2ccccc2)n1	975 nM
CCCCCCCCn1ccc(=N)cc1	840 nM
CC[C@H]1CN2CC[C@H]1C[C@H]2[C@H](O)c1cc(-c2cccc(F)c2)nc2ccc(OC)cc12	58.2 nM
Cc1ccc(N2C(=O)C3C(C2=O)C2(c4ccccc4)C(=O)C3(c3ccccc3)C(c3ccccc3)=C2c2ccccc2)cc1 (configuration not stated)	869 nM
